row,melting point,Structure (SMILES)
1,202 to 205 °C,C[C@H](N)Cc1cc(F)cc2cc(Br)oc12.Cl
2,201 to 202 °C,Cc1coc2c(CC(C)N)cc(F)cc12.O=C(O)C(=O)O (centres unmarked)
3,216 to 217 °C (dec.),CC(N)Cc1cc([N+](=O)[O-])cc2ccoc12.Cl (centres unmarked)
4,200 to 202 °C,CC(N)Cc1c(F)ccc2ccoc12.O=C(O)C(=O)O (centres unmarked)
5,172 to 174 °C,CC(N)Cc1ccc(F)c2ccoc12.O=C(O)C(=O)O (centres unmarked)
